This is an account of results in PubChem BioAssay (NCI).

Among the test systems are HS 578T breast; K-562 leukemia; MALME-3M melanoma; MDA-MB-231 breast; MDA-MB-435; NCI-H460 lung; OVCAR-5 ovarian; SN12C renal; UO-31 renal; MOLT-4 leukemia.
What all share (experiment): NCI tumour cell line growth inhibition, 48 h

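Test compounds were applied to cells in 96-well plates for 48 hours at 5 doses. TGI denotes the concentration required for complete inhibition of growth.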

`COc1ccc(Oc2nc(C#CC(C)(C)O)nc(Oc3ccc(OC)cc3)n2)cc1`: the TGI is 82.7 µM in the test with HS 578T breast; over 100 µM with K-562 leukemia; 34.6 µM in the test on MALME-3M melanoma; 9.93 µM in the test on MDA-MB-231 breast; 17 µM in the test on MDA-MB-435; 37.3 µM with NCI-H460 lung. Also, the TGI was 16.6 µM in the test on OVCAR-5 ovarian, 28.1 µM in the test with SN12C renal and 2.88 µM in the test on UO-31 renal.
Turning to `c1ccc2nc(CCC3CCCCN3)ccc2c1` (centres undefined), the TGI in the test with HS 578T breast, in the test with K-562 leukemia, in the test on MALME-3M melanoma, in the test on MDA-MB-231 breast, with MDA-MB-435 and with NCI-H460 lung was over 100 µM in each case. Also, the TGI in the test with OVCAR-5 ovarian, with SN12C renal and in the test on UO-31 renal was over 100 µM throughout.
Regarding `CC(C)(C)c1ccc(C(C)(C)C)c(N2C(=O)C3ON=C(c4ccc([N+](=O)[O-])cc4)C3C2=O)c1` (centres undefined), the TGI with HS 578T breast, in the test on K-562 leukemia, in the test on MALME-3M melanoma, in the test on MDA-MB-435, in the test on MOLT-4 leukemia and in the test on NCI-H460 lung was over 25 µM each time. Moreover, the TGI in the test with OVCAR-5 ovarian, with SN12C renal and in the test with UO-31 renal was over 25 µM in each case.
With `CCN(CC)CCCC(C)NC(=O)c1ccc2c(c1)C(=O)c1ccccc1C2=O` (centres undefined), the TGI was 48.4 µM in the test with K-562 leukemia; 27.6 µM in the test on MALME-3M melanoma; 52.8 µM in the test with MOLT-4 leukemia; 39.8 µM with NCI-H460 lung; 34.2 µM in the test with OVCAR-5 ovarian; 37.6 µM with SN12C renal. This molecule had a TGI in the test with UO-31 renal of 69 µM.
As to `CC(NC(C#N)CC12CC3CC(CC(C3)C1)C2)c1ccccc1` (centres undefined), the TGI in the test with K-562 leukemia was over 100 µM; with MALME-3M melanoma it was over 100 µM; in the test on MDA-MB-231 breast, over 100 µM; in the test with MDA-MB-435, over 100 µM; in the test with MOLT-4 leukemia, over 100 µM; in the test with NCI-H460 lung, 67.1 µM. The TGI in the test with OVCAR-5 ovarian and in the test on UO-31 renal was over 100 µM throughout.
On to `CC(=O)/C=C(\O)c1[nH]c(C(=O)O)cc1C1CCN(Cc2ccccc2)C1=O` (centres undefined), for which the TGI is over 100 µM with HS 578T breast; 95.1 µM in the test on K-562 leukemia; 46.3 µM with MALME-3M melanoma; over 100 µM in the test on MDA-MB-231 breast; over 100 µM in the test with MDA-MB-435; 53.9 µM with MOLT-4 leukemia. The TGI is 32.3 µM with NCI-H460 lung, 80.2 µM with OVCAR-5 ovarian and 38.5 µM in the test on UO-31 renal.
On to `O=C(OCCC12CC3CC(CC(C3)C1)C2)c1ccc(NCc2cc(O)ccc2O)cc1`, for which the TGI was determined as 0.542 µM with HS 578T breast; 10.6 µM with K-562 leukemia; 3.81 µM in the test on MALME-3M melanoma; 5.31 µM with MDA-MB-231 breast; 3.84 µM in the test on MDA-MB-435; 10.3 µM in the test with MOLT-4 leukemia. Moreover, the figures for the TGI in the test with NCI-H460 lung, in the test on SN12C renal and with UO-31 renal were over 100 µM, 11.2 µM and 1.58 µM, respectively.
Consider `CCN(CC)C(=O)N1CN(c2ccccc2)C2(CCN(CCCSc3ccc(F)cc3)CC2)C1=O`, for which the TGI with HS 578T breast worked out at 16.6 µM; in the test with K-562 leukemia it was 27.4 µM; in the test with MALME-3M melanoma, 29.6 µM; with MDA-MB-435 it was 42.5 µM; with MOLT-4 leukemia, 12.5 µM; in the test on OVCAR-5 ovarian, 36.9 µM. For the same molecule, the figures for the TGI in the test with SN12C renal and in the test on UO-31 renal were 39.8 µM and 22.6 µM, respectively.
Consider `CC(C)C(=O)/C=C/c1ccc(Cl)c(Cl)c1`, for which the TGI with K-562 leukemia was 72.2 µM; in the test on MOLT-4 leukemia, over 100 µM; in the test on NCI-H460 lung it was 48 µM; in the test with OVCAR-5 ovarian it was 36.8 µM; with SN12C renal, 29.2 µM; in the test on UO-31 renal it was 27.2 µM.
On to `O=[N+]([O-])c1ccc(Cl)cc1N/N=C/c1cccc2cccnc12`, for which the TGI in the test on HS 578T breast, with K-562 leukemia, in the test with MDA-MB-231 breast, with MDA-MB-435, in the test with MOLT-4 leukemia and with NCI-H460 lung was over 100 µM throughout. Moreover, the TGI in the test with SN12C renal and in the test on UO-31 renal was over 100 µM throughout.
Consider `O=C1c2ccccc2C(=O)c2c(O)ccc(O)c21`, for which the TGI in the test with K-562 leukemia, in the test with MALME-3M melanoma, in the test with MOLT-4 leukemia, in the test with NCI-H460 lung, in the test on OVCAR-5 ovarian and in the test on SN12C renal was over 100 µM each time. The molecule also showed a TGI with UO-31 renal of over 100 µM.
Take `c1ccc2c(c1)CC1COc3ccccc3C1O2` (centres undefined): the TGI in the test on K-562 leukemia, in the test on MALME-3M melanoma, in the test on MDA-MB-231 breast, in the test with MDA-MB-435, in the test with MOLT-4 leukemia and in the test with OVCAR-5 ovarian was over 100 µM each time. Further, the TGI in the test with SN12C renal and with UO-31 renal was over 100 µM each time.
`N=c1c2c(=S)n(-c3ccccc3)c(=S)n(-c3ccccc3)c2nc(SCCN2CCOCC2)n1-c1ccccc1`: the TGI is over 100 µM in the test with HS 578T breast; 4.18 µM in the test on K-562 leukemia; 3.49 µM with MALME-3M melanoma; 4.73 µM in the test with MDA-MB-231 breast; 3.4 µM with MDA-MB-435; 3.75 µM in the test with MOLT-4 leukemia. Besides, the TGI in the test on NCI-H460 lung amounted to 5.96 µM; in the test on OVCAR-5 ovarian, 33.9 µM; with SN12C renal, 3.71 µM.
On to `COc1cc(C2c3cc4c(cc3[C@@H](Nc3cccc([N+](=O)[O-])c3)C3COC(=O)[C@H]23)OCO4)cc(OC)c1O` (some centres undefined), for which the TGI with K-562 leukemia was over 40.5 µM; with MALME-3M melanoma, 20.1 µM; in the test with MOLT-4 leukemia it was 3.37 µM; in the test with NCI-H460 lung, 1.72 µM; with OVCAR-5 ovarian, over 100 µM; in the test on SN12C renal, over 22.2 µM. The TGI with UO-31 renal was over 29 µM.
Take `NC(=O)CC(N=C1C(=O)OC(C(O)CO)C1=NC(CC(N)=O)C(=O)O)C(=O)O` (centres undefined): the TGI in the test with HS 578T breast, with K-562 leukemia, with MALME-3M melanoma, with MDA-MB-231 breast, in the test on MDA-MB-435 and in the test on MOLT-4 leukemia was over 100 µM in each case. The TGI in the test on NCI-H460 lung, in the test on SN12C renal and with UO-31 renal was over 100 µM each time.
`CS(=O)(=O)OCCCOS(C)(=O)=O`: the TGI with K-562 leukemia, with MALME-3M melanoma, with MOLT-4 leukemia, with NCI-H460 lung, in the test with OVCAR-5 ovarian and in the test on SN12C renal was over 100 µM each time. In the test with UO-31 renal, this molecule showed a TGI of over 100 µM.
